row,SMILES,melting point [°C]
1,CCc1ncc(CCCOc2c(C)cc(C#N)cc2C)s1,52 to 53
2,CC(C)Cc1nn(C)c(=O)c2cn(Cc3cccc4ccccc34)cc12,110 to 112
3,CC(C)C[C@@H](C#N)NC(=O)[C@@H]1CCCC[C@@H]1NC(=O)c1ccc2ncsc2c1,200 to 201
4,O=C(NO)[C@H](CNS(=O)(=O)c1ccc(OCc2ccc(Cl)c(Cl)c2)cc1)N1CCCCC1,166
5,O=S(=O)(c1scc(Br)c1Br)n1nnc2c(Br)cc(C(F)(F)F)cc21,192 to 195
6,CC(=O)Nc1ccc(/C=C/C(=O)NCC(=O)N(C)c2ccc(Cl)c(CO)c2Cl)cn1,207 to 209
7,COC(=O)c1ccc(NS(=O)(=O)c2sc3ccc(F)cc3c2C)c(S(C)(=O)=O)c1,202 to 204
8,O=C(c1ccc(F)cc1)C1CCN(CCCN2c3cccc4cccc(c34)S2(=O)=O)CC1,132
9,CONC(=O)Cc1ccccc1Nc1c(Cl)cccc1Cl,177 to 178
10,O=C1N[C@H](C(=O)O)CSCCCCCCCCC1CS (stereo partly drawn),165 to 168
11,COc1ccc(-c2nc(S(=O)c3ccccc3)n(C)c2-c2ccc(OC)cc2)cc1 (stereo not drawn),114 to 115
12,CCc1ccccc1NC=C1C(=O)N(c2cccc(C#N)c2)N=C1C,211
13,COc1ccc(CC(C)(C)CO)cc1OC,48.5 to 50
14,CCCCCCNc1nc[nH]c2nccc1-2,147 to 148
15,CNCC(O)c1ccc(F)cc1 (stereo not drawn),77 to 78.8
16,Cc1ccc(O)c2c1CCC1C2CCC2(C)C(O)CCC12 (stereo not drawn),226 to 229
17,c1ccc2c(c1)CCn1cnnc1C2,191
18,N#CCOc1ccccc1OCC#N,85 to 85.5
19,CC(C)Oc1c(C(=O)O)oc(C(=O)O)c1OC(C)C,131 to 132
20,CSCc1nnnn1C1CCN(c2ccc(N3C[C@H](CNC(C)=O)OC3=O)cc2F)CC1,118 to 119
21,O=C1NCCN(NC(=O)c2cc(OCc3ccccc3)c(OCc3ccccc3)cn2)C1=O,231
22,C[C@H]1CCCC(C)(C)[C@@H]1C(=O)c1ccc(C#N)c(C(F)(F)F)c1,81.6 to 82.4
23,Cc1noc(NS(=O)(=O)c2ccc(Cl)c(Cl)c2Cl)c1Br,110 to 113
24,COC(=O)CCSCc1ccc2oc(-c3ccc4ccc(Cl)cc4n3)cc2c1,96 to 103
25,CCOC1CN(Cc2ccc(OC)cc2)Cc2cc(OC)c(O)cc21 (stereo not drawn),154 to 157
26,O=c1c2cccnc2n(-c2cccc([N+](=O)[O-])c2)c(=O)n1CCO,212 to 213
27,COC(=O)C1=C(C)NC(C(C)O)=C(C(=O)OC)C1c1ccccc1Cl (stereo not drawn),145 to 147

row,SMILES,melting point [°C]
1,O=c1cc(-c2cc(F)c(O)c(F)c2)oc2ccccc12,275 to 276
2,Cc1c(O)ccc2c1OCC(c1ccc(N)cc1)C2 (stereo not drawn),150 to 151
3,COC(=O)c1c(O)ccn1C,44 to 46
4,Cc1ccc2[nH]c(C(=O)OC(C)C)c(Sc3ccc(Cl)cc3)c2c1,172 to 174
5,COC(C)(OC)C(C#N)=Cc1ccccc1,45 to 46
6,COc1cccc(-n2nc(-c3ccccc3)c3cccnc32)c1,102 to 105
7,CCOc1ccc2[nH]c(=O)n(C3CCCCCC3)c2c1,204
8,CCc1ccc(S(C)(=O)=O)c(C(=O)c2ccc(F)cc2)c1,145 to 147
9,CCOCCc1ccc(OCC=NO)c(C)c1C,102 to 105
10,N#Cc1cscc1Nc1c(Cl)cccc1Cl,105 to 108
11,COC1(c2nc3ccc(C)cc3s2)C=CC(=NS(=O)(=O)c2ccc(C)cc2)C=C1 (stereo not drawn),166 to 168
12,CNC(=O)c1cc2nc(C)c(C)nc2c(Cl)c1NC(=O)c1cc(C(F)(F)F)nn1-c1ncccc1Cl,221 to 224
13,CC(=O)NCc1c(C)cc(CCl)cc1C,193 to 194
14,COc1ccc(C(CC2=NOC(=O)C2)c2ccccc2)cc1OC1CCCC1 (stereo not drawn),137 to 139
15,OCc1cccc(-n2cccc2)n1,55
16,CCCc1nn(-c2ccc(C(F)(F)F)cn2)cc1CCCCOc1nn(C)cc1CC(=O)O,95 to 97
17,"CN1CCN(C(=O)NC(CS)Cc2ccccc2)CC1 (single isomer, unassigned; (-))",68 to 70
18,C(=C1CCCc2cccnc21)c1ccccc1,58 to 59
19,O=C(c1c(Cl)cccc1Cl)N(C(=O)c1c(Cl)cccc1Cl)c1cc(-c2ccc(Cl)cc2)on1,219 to 223
20,Cc1ccc2nc(-c3cc(C(F)(F)C(F)(F)F)nn3-c3ccc(S(C)(=O)=O)cc3)sc2c1,195 to 196
21,Nc1ccc(Sc2ccccc2)cn1,127 to 129
22,Cc1cccc(-c2sc(N)nc2-c2ccnc(-c3ccc(OCCN4CCCC4)cc3)c2)n1,150
23,Cc1nc(-c2ccccc2)nc(-c2ccncc2)c1NC(=O)OC(C)(C)C,166 to 167
24,CCOC(=O)c1cc2c(cc1OCC)C(=O)C=CC2=O,60 to 62
25,CCCC(=NOCC)C1=C(O)CC(C2(C)CC(C(C)C)=NO2)CC1=O (stereo not drawn),85
26,CCOC(=O)CN1c2ccccc2Oc2ccccc21,96 to 97
